Test results reported in patent US20250090621A1, “METHODS AND COMPOSITIONS FOR THE TREATMENT OF AGE-RELATED MACULAR DEGENERATION” (Stealth BioTherapeutics Inc., priority 2023, published 2025).
“Also recorded” adds a separate entry of the source. Residues, ends and D or L forms follow the SMILES beside them.

System: patients with at least one eye with dry AMD and GA
Assay: Phase 2 randomized, placebo-controlled, double-masked trial of elamipretide (NCT03891875)
Format: in vivo, human
Protocol: Study design. In this Phase 2, randomized, placebo-controlled, double-masked, multicenter, safety and efficacy trial (ClinicalTrials.gov identifier NCT03891875), patients with at least one eye with dry AMD and GA were included. Visit 1 (screening visit) was performed no more than 14 days before the baseline visit (visit 2, day 1) (FIG. 1). Eligible patients returned for the baseline visit, at which time they were randomized (interactive response system) in a 2:1 ratio to receive either elamipretide 40 mg or placebo administered with a pen injector delivery system as a single daily self-administered subcutaneous injection. This dose was chosen based on the systemic exposure and safety profiles of elamipretide in an earlier trial (Allingham 2022; Mettu 2022). Patients were treated for 48 weeks, with assessments at day 1 and weeks 4, 8, 12, 24, 36, and 48 (visits 2 to 8) plus a final safety follow-up visit 4 weeks after the last day of study treatment (week 52; visit 9). Patient diaries and vial counts were used and reviewed to verify compliance.
Patients—Key inclusion criteria. The original protocol specified that adults≥55 years of age with one eye with dry AMD and GA were eligible for study entry. However, a subsequent amendment to the protocol limited inclusion to patients with noncentral GA. Noncentral GA and area was determined primarily by fundus autofluorescence (FAF) and all noncentral GA lesions were required to be ≥150 μm from foveal center with preserved outer retinal structural details, as confirmed by the central reading center (BIRC, Boston MA). Noncentral GA was required to be ≥0.05 mm^2 and ≤10.16 mm^2 in size, and reside completely within the FAF 30- or 35-degree image. […] The fellow eye was allowed to have AMD with or without GA, MNV, central GA, or no pathology.
Patients—Key exclusion criteria. Key exclusion criteria for study eye included absence of observable hyper-FAF at the margins of the GA (only for lesions 0.25 mm^2), atrophic retinal disease of causality other than AMD including myopia-related maculopathy and monogenetic macular dystrophies including pattern dystrophy and adult-onset Stargardt disease. Presence or diagnosis of exudative AMD or MNV, presence of retinal vein occlusion or vitreous hemorrhage, history of retinal detachment or macular hole, presence of an epiretinal membrane that causes distortion of the retinal contour, vitreomacular traction, or advanced glaucoma in the study eye were also not allowed.
Study objectives and endpoints. The primary efficacy endpoints were changes from baseline in LL BCVA and in square root converted GA area as measured by OCT. Secondary efficacy endpoints included changes in ellipsoid zone integrity, categorical changes from baseline in LL-BCVA, changes from baseline in LL reading acuity (LLRA), BCVA, and GA area as measured by FAF. Additional predefined endpoints included change in center 1-mm and 2-mm mean EZ-RPE thickness, National Eye Institute Visual Function Questionnaire (VFQ-39) score, RA at standard light, visual function by the Low-Luminance Questionnaire (LLQ). For efficacy endpoints, the unit of analysis was study eye; in cases where both eyes are eligible for analysis, the study eye was the eye with the worse LL BCVA as determined at baseline (right eye was the study eye for equal LL BCVA). Ellipsoid zone integrity was measured as previously described on OCT utilizing a machine learning enhanced multi-layer segmentation platform that provided panmacular assessment of the EZ and RPE location (Sirici, et al., Ophthamol Surg Lasers Imaging Retina, 2022; Itoh, et al, Br J Ophthamol, 2016).
The primary safety objective was to evaluate the safety/tolerability of elamipretide. […]

[1] = LS mean change from baseline to week 48, 40 mg SC once daily

SMILES: Cc1cc(O)cc(C)c1C[C@H](NC(=O)[C@H](N)CCCNC(=N)N)C(=O)N[C@@H](CCCCN)C(=O)N[C@@H](Cc1ccccc1)C(N)=O [elamipretide, H-D-Arg-2′,6′Dmt-Lys-Phe-NH2] (HELM PEPTIDE1{[dR].[Cc1cc(O)cc(C)c1C[C@H](N[*:1])C(=O)[*:2]].K.F.[am]}$$$$V2.0)
- LS mean change from baseline to week 48 for macular percentage of tEZa (EZ-RPE thickness of 0 μm) (40 mg SC once daily, OCT, mITT, placebo 6.47% [0.737], P=0.0034): 3.69%
- LS mean change from baseline to week 48 for pEZa (EZ-RPE thickness ≤20 μm) (40 mg SC once daily, OCT, mITT, placebo 7.68% [0.969], P=0.0040): 4.10%
- square root of GA area progression as measured by OCT (40 mg SC once daily, week 48, mITT, placebo 0.275, P=0.34): 0.312 mm
- patients experiencing a ≥2-line gain (≥10 letter) in LL BCVA (40 mg SC once daily, week 48, mITT, placebo 2.1%, P=0.0404): 14.6%
- percentage of patients at week 48 experiencing a >1-line gain (40 mg SC once daily, in words, versus placebo): higher compared to placebo
- progression of GA area relative to the baseline boundary of total EZ attenuation (48-week trial, in words): did not progress to the baseline boundary of total EZ attenuation
- progression of partial EZ attenuation versus placebo (48 weeks, mITT, in words): reduces partial EZ attenuation
- progression of total EZ attenuation versus placebo (48 weeks, mITT, in words): significantly less progression of tEZa; also recorded: reduces total EZ attenuation
- growth of partial EZ attenuation area during the trial (48 weeks, placebo arm 34%): 15%
- growth of total EZ attenuation area (mm^2) during the trial (48 weeks, placebo arm 48%): 26%
- reduction in progression of partial EZ attenuation relative to placebo [1]: 47%
- reduction in progression of total EZ attenuation relative to placebo [1]: 43%
- least squares (LS) mean change from baseline in LL BCVA (elamipretide 40 mg SC once daily, week 48, mITT, study eye, placebo −4.4, P=0.49): −3.0 letters
- Early discontinuation, reason: Withdrawal by subject (elamipretide arm n=117, placebo 3 (5.1)): 20 (17.1) n (%)
- Early discontinuation, reason: Adverse event (elamipretide arm n=117, placebo 4 (6.8)): 10 (8.5) n (%)
- Subjects leaving study early (elamipretide arm n=117, placebo 8 (13.6)): 34 (29.1) n (%)
- GA zonal lesion area, change from baseline at Week 48 (mITT n=76, baseline 2.63, placebo 0.99): 1.15 mm^2
- patients who discontinued the study early (of 117 randomized to elamipretide [29%], placebo n=8): 34 patients
- early discontinuation due to adverse events (of 117 randomized to elamipretide, placebo 4): 10 patients
- early discontinuation due to withdrawal by subject (of 117 randomized to elamipretide, placebo n=3): 20 patients
- tEZa zonal lesion area, change from baseline at Week 48 (post hoc, percent attenuation x total macular area on OCT, mITT n=72, baseline 5.39, placebo 2.23, p = 0.04): 1.39 mm^2
- pEZa zonal lesion area, change from baseline at Week 48 (post hoc, percent attenuation x total macular area on OCT, mITT n=72, baseline 9.03, placebo 2.65, p = 0.01): 1.34 mm^2
- progression of the EZ-GA gap (post-hoc, total randomized population, baseline, 24 and 48 weeks, in words, versus placebo): slower rate of progression; also recorded: reduced progression of EZ-GA gap
- treatment effect in LL BCVA versus placebo, subgroup with mean center 1 mm EZ-RPE thickness ≥10-micron (post-hoc, week 48, in words): trended towards a treatment effect
- categorical improvement in LL BCVA (≥2-line gain) versus placebo (week 48, mITT, in words): significantly more patients experiencing a ≥2-line gain; also recorded: categorical improvement in LL BCVA
